Data taken from paper PMC3447335, “Evaluation of Pseudopteroxazole and Pseudopterosin Derivatives against Mycobacterium tuberculosis and Other Pathogens” (Marine Drugs, 2012).
Values after ≈ are worked out from the molar mass of the structure shown.

Experiments:
[1] = test system: M. tuberculosis H37Rv (ATCC 27294); experiment: Microplate Alamar blue assay (MABA); format: cell-based, Mycobacterium tuberculosis; details: for MIC: Mycobacterium tuberculosis
[2] = test system: M. tuberculosis H37Rv (ATCC 27294); experiment: microbe, parasite or virus in culture; format: cell-based, Mycobacterium tuberculosis; details: Mycobacterium tuberculosis; for inhibition at 64 µg/mL: % inhibition at 64 μg/mL, read-out: LORA % inh; for MIC: read-out: LORA MIC
Vero cells = experiment: cells; details: Chlorocebus sabaeus; for cytotoxicity at 128 µg/mL: read-out: Vero cell (% inh); for IC50: read-out: Vero cell IC50
NCI-60 cell line = details: cited from earlier work
M. tuberculosis H37Rv [3] = test system: M. tuberculosis H37Rv; parameters: method as in PMID 12828474; details: natural 2 isolated from P. elisabethae, at 12.5 μg/mL (40 μM); cited from earlier work
M. tuberculosis H37Rv [4] = test system: M. tuberculosis H37Rv; parameters: method as in PMID 9145860; details: comparison values; cited from earlier work
[5] = M. tuberculosis H37Rv (ATCC 27294), replicating, read-out: MABA MIC

| Compound | SI (Selectivity Index) ([1]; (Vero Cell IC50)/(M. tuberculosis MIC)) | MIC [1, 5] | MIC ([1]; wild-type M. tuberculosis H37Rv, Table 2 experiment, read-out: MABA MIC H37Rv) | inhibition at 64 µg/mL [2] | MIC ([2]; non-replicating persistent model) | MIC ([2]; value given in μM) | cytotoxicity at 128 µg/mL (Vero cells) | IC50 (Vero cells) | cytotoxicity against the NCI-60 cell line assay (NCI-60 cell line) | activity against M. tuberculosis H37Rv ([1]; semi-synthetic material, MABA) | inhibition against M. tuberculosis H37Rv (M. tuberculosis H37Rv [3]) | MIC of first and second line TB treatments (M. tuberculosis H37Rv [4]) |
| --- | --- | --- | --- | --- | --- | --- | --- | --- | --- | --- | --- | --- |
| CC(C)=C[C@@H]1C[C@H](C)[C@H]2CC[C@H](C)c3c2c1c(C)c1ncoc31 [Compound 1, pseudopteroxazole] | >8.6 | 15 µg/mL (≈ 48.5 µM) | 7 µg/mL (≈ 22.6 µM) | 99.7% | 50 µg/mL | 162 µM | 0% | > 128 µg/mL | no significant cytotoxicity | – | – | – |
| CCCCCc1nc2c(C)c3c4c(c2o1)[C@@H](C)CC[C@@H]4[C@@H](C)C[C@H]3C=C(C)C [Compound 2, homopseudopteroxazole] | – | > 128 µg/mL | – | 22.6% | – | – | 0% | > 128 µg/mL | – | not active | 80% | – |
| NC[C@H]1O[C@H](O[C@H]2[C@H](O)[C@@H](O[C@H]3O[C@H](CO)[C@@H](O)[C@H](N)[C@H]3O)[C@H](N)C[C@@H]2N)[C@H](O)[C@@H](O)[C@@H]1O [kanamycin] | – | – | – | – | – | – | – | – | – | – | – | 2.5 to 10.3 µM |
| capreomycin | – | – | – | – | – | – | – | – | – | – | – | 0.94 to 3.7 µM |
